We go through three compounds from patent US9198451B2, “Aroma composition to reduce or suppress undesirable bitter and astringent taste impressions of sweeteners” (SYMRISE AG, priority 2008, dated 2015).

Structures can show the parent of a compound that is named as a salt.

This series is described as follows: Solubility of the salts (saturated solution, filtering, HPLC determination of homoeriodictyol content). The class given is physicochemical. The protocol:
The solubility of the homoeriodictyol sodium salt and the salts produced in Example 1 and Example 2 is determined by the production of a saturated solution, filtering of this and then HPLC determination of the homoeriodictyol content.

As usually defined, the solubility is how much of the substance goes into solution per volume.

`COc1cc([C@@H]2CC(=O)c3c(O)cc(O)cc3O2)ccc1O` [Example 2, Homoeriodictyol Potassium Calcium Salt]: the “Solubility in water, containing 1.5 g/l citric acid” value (water containing 1.5 g/l citric acid, saturated solution, filtered, HPLC, Potassium Calcium Salt) amounted to 5400 µg/mL. Moreover, where the note is “saturated solution, filtered, HPLC, Potassium Calcium Salt”, the Solubility in water was found to be 10000 µg/mL.
Take `COc1cc([C@@H]2CC(=O)c3c(O)cc(O)cc3O2)ccc1O` [Homoeriodictyol sodium salt, reference compound]: the solubility (water containing 1.5 g/l citric acid, aqueous buffer, thermodynamic from solid, saturated solution, filtered, HPLC) came out at 3800 µg/mL. The Solubility in water (saturated solution, filtered, HPLC, sodium salt) was determined as 2800 µg/mL.
In the case of `COc1cc([C@@H]2CC(=O)c3c(O)cc(O)cc3O2)ccc1O` [Example 1, homoeriodictyol potassium salt], the “solubility compared with pure homoeriodictyol sodium salt” value is listed as “better solubility”. Besides, the “Solubility in water, containing 1.5 g/l citric acid” value (water containing 1.5 g/l citric acid, saturated solution, filtered, HPLC, potassium salt) amounted to 5100 µg/mL. Further, the Solubility in water (saturated solution, filtered, HPLC, potassium salt) was 7000 µg/mL.
